Experimental data published in PubChem BioAssay AID1918931 (Molecular Pharmacology Branch, DTP, NCI, 2023).

Tested on: 138582-337-R-J1-PDC complex spheroid viability
Test: Anticancer human tumor 138582-337-R-J1-PDC patient-derived Merkel cell tumor cell line growth inhibition
Conditions: for IC50: curve of first compound; for viability, T/C: stronger effect = lower value
Excerpt: Multicellular complex tumor spheroid response to LSD1 Inhibitor Iadademstat in combination with a variety of drugs and investigational agents in selected tumor cell lines
The current study was undertaken to assess response to LSD1 inhibitors in combination with standard-of-care drugs and investigational agents in solid tumor complex spheroid models as well as in the K-562 leukemia. Complex spheroids include a stromal component modeled by human endothelial cells (HUVEC) and fibroblasts modeled by human mesenchymal stem cells (MSCs). The concentration ranges selected for each drug and investigational agent were based upon clinically achievable concentrations if the clinical Cmax of the agent was known.
Compounds. The drugs and investigational agents used in this study are listed on Table 1. All of the agents used, including staurosporine (NSC755774) and gemcitabine (NSC613327), were obtained from the Developmental Therapeutics Program, NCI. FDA-approved anticancer drugs are available from the NCI at http://dtp.nci.nih.gov/branches/dscb/oncology_drugset_explanation.html. Drugs and investigational agents were >95% pure by proton nuclear magnetic resonance (NMR) and liquid chromatography/mass spectrometry (LC/MS). Stock solutions were prepared at 400x in DMSO, stored at -70 degrees C, and diluted in fresh medium prior to their use. The final concentration of DMSO in cell culture wells never exceeded 0.25% (v/v). The FDA-approved anticancer drug set is available from the Developmental Therapeutics Program at https://dtp.cancer.gov/organization/dscb/obtaining/available_plates.htm. All drugs and investigational agents were tested over a range starting from a high concentration at or near the clinical Cmax and decreasing in half-log increments. If the clinical Cmax for an agent had not been determined, the highest concentration tested was 10 microM.
Cell Lines. The patient-derived cancer cell (PDC) lines: 292921-168-R-J2-PDC, K24384-001-R-PDC, and 521955-158-R2-J5-PDC pancreatic carcinomas, 556581-035-R-J1 ovarian carcinoma, 324938-238-R-J1-PDC, 855422-203-R-J1-PDC and 883617-216-R-J1-PDC urothelial bladder carcinomas, 743489-274-T-PDC renal cell carcinoma, 138582-R-J1 Merkel cell tumor, K60290-347-R-J1 and K57222-313-R-J1-PDC glioblastomas, 653999-131-R-J2-PDC, LG0703-F948-PDC, and 349418-098-R-PDC non-small cell lung carcinomas, 885512-296-R-J2-PDC, 171881-019-R-J1-PDC breast carcinomas and 186277-243-T-J2-PDC and 233499-124-R-J2-PDC colon carcinomas were obtained from the NCI Patient-Derived Models Repository (PDMR, https://pdmr.cancer.gov). The established cell lines NCI/ADR-RES (RRID:CVCL_14520 and OVCAR-5 (RRID:CVCL_1628) ovarian carcinomas, 786-O (RRID:CVCL_1051) and A498 (RRID:CVCL_A498) renal cell carcinoma, NCI-H211 (ATCC, cat. CRL-5824; RRID:CVCL_1529), NCI-H196 (ATCC, cat. CRL-5823, RRID:CVCL_1509), SW 1271 (ATCC, cat. CRL-2177, RRID:CVCL_1716) and NCI-H1876 (ATCC, cat. CRL-5902, RRID:CVCL_1503) small cell lung carcinomas, MDA-MB-231 (RRID:CVCL_0062) and MDA-MB-468 (RRID:CVCL_0419)breast carcinomas (10-12). Pooled donor human umbilical vein endothelial cells (HUVEC, Lonza, cat. CC-2519) and human mesenchymal stem cells (hMSC, Lonza, cat. PT-2501) were purchased from Lonza (Walkersville, MD).
Cell Culture. All cells were maintained in an incubator at 37 degrees C and 5% CO2 with 95% humidity. The PDC lines were cultured according to standard operating procedures established by the NCI PDMR (https://pdmr.cancer.gov). Briefly all PDCs were thawed and cultured in Matrigel-coated flasks prepared with a working solution of 1X Ham's F-12 nutrient mix, without supplementation (Invitrogen, Waltham, MA, cat. 11765054), 100 U/mL penicillin-streptomycin (Invitrogen, cat. 15140122), and 2.5% Matrigel (Corning Inc., Corning, NY, cat. 354248) for the first three passages. […]

[1] = second compound 0.1 µM, first compound 0.000949 µM
[2] = second compound 0.1 µM, first compound 0.003 µM
[3] = second compound 0.1 µM, first compound 0.00949 µM
[4] = second compound 0.1 µM, first compound 0.03 µM
[5] = second compound 0.1 µM, first compound 0.0949 µM
[6] = second compound 0.1 µM, first compound 0.3 µM
[7] = second compound 0.316 µM, first compound 0.000949 µM
[8] = second compound 0.316 µM, first compound 0.003 µM
[9] = second compound 0.316 µM, first compound 0.00949 µM
[10] = second compound 0.316 µM, first compound 0.03 µM
[11] = second compound 0.316 µM, first compound 0.0949 µM
[12] = second compound 0.316 µM, first compound 0.3 µM
[13] = second compound 1 µM, first compound 0.000949 µM
[14] = second compound 1 µM, first compound 0.003 µM
[15] = second compound 1 µM, first compound 0.00949 µM
[16] = second compound 1 µM, first compound 0.03 µM
[17] = second compound 1 µM, first compound 0.0949 µM
[18] = second compound 1 µM, first compound 0.3 µM
[19] = second compound 3.16 µM, first compound 0.000949 µM
[20] = second compound 3.16 µM, first compound 0.003 µM
[21] = second compound 3.16 µM, first compound 0.00949 µM
[22] = second compound 3.16 µM, first compound 0.03 µM
[23] = second compound 3.16 µM, first compound 0.0949 µM
[24] = second compound 3.16 µM, first compound 0.3 µM
[25] = second compound 10 µM, first compound 0.000949 µM
[26] = second compound 10 µM, first compound 0.003 µM
[27] = second compound 10 µM, first compound 0.00949 µM
[28] = second compound 10 µM, first compound 0.03 µM
[29] = second compound 10 µM, first compound 0.0949 µM
[30] = second compound 10 µM, first compound 0.3 µM
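Note: spheroids exposed to agents for 7 days.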
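Throughout, for viability, T/C: 100% = DMSO vehicle control viability.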

CCc1c2c(nc3ccc(O)cc13)-c1cc3c(c(=O)n1C2)COC(=O)[C@]3(O)CC + NC1CC1c1ccc(-c2cccc(O)c2)cc1
IC50 (second compound 0.1 µM): 4.56 nM | IC50 (second compound 0.316 µM): 2.69 nM | IC50 (second compound 1 µM): 3.28 nM | IC50 (second compound 3.16 µM): 4.01 nM | IC50 (second compound 10 µM): 5.59 nM | viability, T/C [1]: 64.6% | viability, T/C [2]: 65.2% | viability, T/C [3]: 23.9% | viability, T/C [4]: 0.24% | viability, T/C [5]: 0.19% | viability, T/C [6]: 0.2% | viability, T/C [7]: 73.8% | viability, T/C [8]: 45.9% | viability, T/C [9]: 23.5% | viability, T/C [10]: 0.59% | viability, T/C [11]: 0.13% | viability, T/C [12]: 0.24% | viability, T/C [13]: 57.1% | viability, T/C [14]: 51.3% | viability, T/C [15]: 23.9% | viability, T/C [16]: 0.3% | viability, T/C [17]: 0.16% | viability, T/C [18]: 0.21% | viability, T/C [19]: 78% | viability, T/C [20]: 57.7% | viability, T/C [21]: 25.3% | viability, T/C [22]: 0.56% | viability, T/C [23]: 0.14% | viability, T/C [24]: 0.23% | viability, T/C [25]: 82.4% | viability, T/C [26]: 68% | viability, T/C [27]: 34.7% | viability, T/C [28]: 0.44% | viability, T/C [29]: 0.21% | viability, T/C [30]: 0.33%

Nc1ccn(C2OC(CO)C(O)C2(F)F)c(=O)n1 (stereo not given) + NC1CC1c1ccc(-c2cccc(O)c2)cc1
IC50 (second compound 0.1 µM): > 300 nM | IC50 (second compound 0.316 µM): > 300 nM | IC50 (second compound 1 µM): > 300 nM | IC50 (second compound 3.16 µM): > 300 nM | IC50 (second compound 10 µM): > 300 nM | viability, T/C [1]: 75.3% | viability, T/C [2]: 69.9% | viability, T/C [3]: 86.8% | viability, T/C [4]: 59% | viability, T/C [5]: 56% | viability, T/C [6]: 58.3% | viability, T/C [7]: 62.5% | viability, T/C [8]: 83.7% | viability, T/C [9]: 73.7% | viability, T/C [10]: 64.6% | viability, T/C [11]: 64.6% | viability, T/C [12]: 67.9% | viability, T/C [13]: 77.1% | viability, T/C [14]: 79.7% | viability, T/C [15]: 79.5% | viability, T/C [16]: 72.8% | viability, T/C [17]: 66.7% | viability, T/C [18]: 57.6% | viability, T/C [19]: 74.4% | viability, T/C [20]: 75.7% | viability, T/C [21]: 83.7% | viability, T/C [22]: 74.1% | viability, T/C [23]: 67.6% | viability, T/C [24]: 85% | viability, T/C [25]: 93.5% | viability, T/C [26]: 79% | viability, T/C [27]: 99.7% | viability, T/C [28]: 73.5% | viability, T/C [29]: 70.3% | viability, T/C [30]: 86.8%

O=C(c1cc(Cc2n[nH]c(=O)c3ccccc23)ccc1F)N1CCN(C(=O)C2CC2)CC1 + NC1CC1c1ccc(-c2cccc(O)c2)cc1
IC50 (second compound 0.1 µM): 9080 nM | IC50 (second compound 0.316 µM): 5150 nM | IC50 (second compound 1 µM): > 10000 nM | IC50 (second compound 3.16 µM): > 10000 nM | IC50 (second compound 10 µM): > 10000 nM | viability, T/C (second compound 0.1 µM, first compound 0.0316 µM): 72% | viability, T/C (second compound 0.1 µM, first compound 0.1 µM): 74.9% | viability, T/C (second compound 0.1 µM, first compound 0.316 µM): 68.4% | viability, T/C (second compound 0.1 µM, first compound 1 µM): 68.5% | viability, T/C (second compound 0.1 µM, first compound 3.16 µM): 58.6% | viability, T/C (second compound 0.1 µM, first compound 10 µM): 49.5% | viability, T/C (second compound 0.316 µM, first compound 0.0316 µM): 68.6% | viability, T/C (second compound 0.316 µM, first compound 0.1 µM): 73.7% | viability, T/C (second compound 0.316 µM, first compound 0.316 µM): 66.2% | viability, T/C (second compound 0.316 µM, first compound 1 µM): 57.6% | viability, T/C (second compound 0.316 µM, first compound 3.16 µM): 53.6% | viability, T/C (second compound 0.316 µM, first compound 10 µM): 45.7% | viability, T/C (second compound 1 µM, first compound 0.0316 µM): 76.5% | viability, T/C (second compound 1 µM, first compound 0.1 µM): 77.3% | viability, T/C (second compound 1 µM, first compound 0.316 µM): 70.9% | viability, T/C (second compound 1 µM, first compound 1 µM): 64.8% | viability, T/C (second compound 1 µM, first compound 3.16 µM): 62.4% | viability, T/C (second compound 1 µM, first compound 10 µM): 57.4% | viability, T/C (second compound 3.16 µM, first compound 0.0316 µM): 78.8% | viability, T/C (second compound 3.16 µM, first compound 0.1 µM): 79.8% | viability, T/C (second compound 3.16 µM, first compound 0.316 µM): 82.4% | viability, T/C (second compound 3.16 µM, first compound 1 µM): 70.7% | viability, T/C (second compound 3.16 µM, first compound 3.16 µM): 80% | viability, T/C (second compound 3.16 µM, first compound 10 µM): 60.6% | viability, T/C (second compound 10 µM, first compound 0.0316 µM): 81.5% | viability, T/C (second compound 10 µM, first compound 0.1 µM): 81.1% | viability, T/C (second compound 10 µM, first compound 0.316 µM): 80.3% | viability, T/C (second compound 10 µM, first compound 1 µM): 93.3% | viability, T/C (second compound 10 µM, first compound 3.16 µM): 71.3% | viability, T/C (second compound 10 µM, first compound 10 µM): 87.1%
